The text below walks through data of ChEMBL document CHEMBL1201862, “PubChem BioAssay data set” (2004).

In one assay the target is Chaperone protein dnaK (Escherichia coli, UniProt C3TRK2). As to the kind of experiment: DnaK beta-domain binding affinity, SAR follow-up, orthogonal assay for DnaK modulator project, biophysical, isothermal titration calorimetry, full-length DnaK (AID 1495). For orientation: ITC needs no label: the signal is the heat of the interaction.
The test system of the next assay is Staphylococcus aureus. Nature of the assay: Inhibitors of Bacterial Quorum Sensing Structure Activity Relationship (SAR) Analysis: Dose Response Assay. [Related pubchem assays: 700, 527 ]. Type of assay: functional, organism-based.
Assay [1] has as its target T1, Mannose-6-phosphate isomerase (Homo sapiens, UniProt P34949).
T1 sequence (P34949 whole entry): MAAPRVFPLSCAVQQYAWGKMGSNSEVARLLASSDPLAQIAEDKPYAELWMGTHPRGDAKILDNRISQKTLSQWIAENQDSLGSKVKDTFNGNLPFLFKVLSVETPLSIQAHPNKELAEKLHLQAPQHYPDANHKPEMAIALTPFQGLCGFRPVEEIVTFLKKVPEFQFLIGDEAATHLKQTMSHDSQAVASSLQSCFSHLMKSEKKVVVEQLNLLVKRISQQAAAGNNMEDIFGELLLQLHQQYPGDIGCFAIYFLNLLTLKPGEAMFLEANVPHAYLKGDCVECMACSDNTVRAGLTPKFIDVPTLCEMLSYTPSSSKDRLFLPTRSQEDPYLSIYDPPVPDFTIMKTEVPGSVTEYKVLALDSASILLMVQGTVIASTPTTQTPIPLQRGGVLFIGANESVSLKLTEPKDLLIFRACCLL
Nature of the assay: inhibitors of human PMI, primary screen, biochemical, fluorescence intensity, coupled assay (AID 1209).

The target of assay [2] is DNA dC->dU-editing enzyme APOBEC-3G (Homo sapiens, UniProt Q9HC16). Nature of the assay: Dose Response confirmation of small molecule APOBEC3G DNA Deaminase Inhibitors via a fluorescence-based single-stranded DNA deaminase assay. [Related pubchem assays (depositor defined):AID493012, AID493028]. The assay is classed as functional.
Chain of DNA dC->dU-editing enzyme APOBEC-3G (Q9HC16 whole entry): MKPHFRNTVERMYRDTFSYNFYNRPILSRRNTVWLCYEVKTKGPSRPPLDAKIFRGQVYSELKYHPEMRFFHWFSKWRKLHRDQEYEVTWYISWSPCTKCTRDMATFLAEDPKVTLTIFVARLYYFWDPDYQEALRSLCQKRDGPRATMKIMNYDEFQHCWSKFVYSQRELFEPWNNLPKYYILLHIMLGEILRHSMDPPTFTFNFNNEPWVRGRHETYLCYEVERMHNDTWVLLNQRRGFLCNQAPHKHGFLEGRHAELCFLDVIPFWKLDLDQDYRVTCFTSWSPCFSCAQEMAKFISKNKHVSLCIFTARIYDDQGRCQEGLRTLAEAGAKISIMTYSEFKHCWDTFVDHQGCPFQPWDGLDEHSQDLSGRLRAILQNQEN
In assay [3] the target is DNA dC->dU-editing enzyme APOBEC-3A (Homo sapiens, UniProt P31941). Nature of the assay: APOBEC3A DNA deaminase inhibitors, dose response, biochemical (AID 504722). Type of assay: functional.
Chain of DNA dC->dU-editing enzyme APOBEC-3A (P31941 whole entry): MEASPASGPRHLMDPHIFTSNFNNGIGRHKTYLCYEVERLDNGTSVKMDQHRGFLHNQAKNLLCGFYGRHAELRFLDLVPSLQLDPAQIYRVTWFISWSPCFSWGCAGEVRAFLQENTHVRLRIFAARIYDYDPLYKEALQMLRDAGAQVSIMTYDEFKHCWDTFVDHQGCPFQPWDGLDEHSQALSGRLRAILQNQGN
The target in the next assay is Aspartyl aminopeptidase (Plasmodium falciparum 3D7, UniProt Q8I2J3).
Chain of Aspartyl aminopeptidase (Q8I2J3 whole entry): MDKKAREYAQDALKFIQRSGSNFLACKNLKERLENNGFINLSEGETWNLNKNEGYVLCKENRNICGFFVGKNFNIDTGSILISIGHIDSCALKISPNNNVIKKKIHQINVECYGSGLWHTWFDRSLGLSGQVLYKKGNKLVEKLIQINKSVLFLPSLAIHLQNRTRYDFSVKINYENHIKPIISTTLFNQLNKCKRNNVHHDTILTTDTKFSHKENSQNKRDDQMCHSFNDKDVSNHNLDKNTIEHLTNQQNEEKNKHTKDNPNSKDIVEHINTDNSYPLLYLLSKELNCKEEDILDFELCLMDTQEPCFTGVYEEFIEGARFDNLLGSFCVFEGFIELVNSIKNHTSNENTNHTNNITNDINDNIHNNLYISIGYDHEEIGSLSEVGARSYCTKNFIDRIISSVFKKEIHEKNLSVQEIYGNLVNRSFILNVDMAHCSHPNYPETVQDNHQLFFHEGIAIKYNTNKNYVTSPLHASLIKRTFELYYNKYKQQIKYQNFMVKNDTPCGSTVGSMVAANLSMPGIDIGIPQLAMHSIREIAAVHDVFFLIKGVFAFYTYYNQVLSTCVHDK
Assay [4] deals with T1, Mannose-6-phosphate isomerase. Nature of the assay: human PMI inhibitors, high substrate, primary screen, biochemical, fluorescence intensity, high mannose 6-phosphate (AID 1220).
A further assay addresses Procathepsin L (Homo sapiens, UniProt P07711).
Assay [5] in a line: cytotoxicity in HPDE-C7 cells, cell-based, fluorescence, HTS (AID 430). Type of assay: functional. The note with it: Homo sapiens.
Assay [6] addresses Intestinal-type alkaline phosphatase (Mus musculus, UniProt P24822). As to the kind of experiment: PubChem AID 488874. Type of assay: functional.
The nature of assay [7]: cytotoxicity in KRAS-transformed pancreatic duct cells, primary screen, cell-based, fluorescence, HTS (AID 431). Type of assay: functional. The note with it: Homo sapiens.
For assay [8], the target named is T2, Intestinal-type alkaline phosphatase (Homo sapiens, UniProt P09923). Nature of the assay: human intestinal alkaline phosphatase activators, dose response, biochemical, luminescence, uHTS hits (AID 463120). The assay is classed as functional.
T2 sequence (P09923 whole entry): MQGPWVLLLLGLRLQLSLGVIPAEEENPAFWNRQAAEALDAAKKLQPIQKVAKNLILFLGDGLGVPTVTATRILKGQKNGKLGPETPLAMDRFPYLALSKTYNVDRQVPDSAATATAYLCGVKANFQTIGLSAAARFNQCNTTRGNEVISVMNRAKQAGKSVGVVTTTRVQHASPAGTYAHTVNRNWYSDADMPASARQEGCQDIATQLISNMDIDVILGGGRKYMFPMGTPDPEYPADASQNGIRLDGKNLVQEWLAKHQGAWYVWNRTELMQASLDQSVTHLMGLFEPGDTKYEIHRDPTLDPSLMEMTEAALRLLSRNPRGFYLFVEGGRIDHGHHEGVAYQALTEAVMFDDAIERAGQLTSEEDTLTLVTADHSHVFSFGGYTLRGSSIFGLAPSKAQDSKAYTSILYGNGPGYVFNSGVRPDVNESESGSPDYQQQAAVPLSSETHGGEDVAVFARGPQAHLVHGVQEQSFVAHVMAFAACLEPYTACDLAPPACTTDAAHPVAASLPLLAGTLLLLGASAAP
Assay [9] addresses T2, Intestinal-type alkaline phosphatase. As to the kind of experiment: human IAP activators, dose response, biochemical, luminescent, uHTS hits, set 2 (AID 488817).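 Note: potency of activators that raise enzyme activity.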 The assay is classed as functional.
For assay [10], the target named is T3, Alkaline phosphatase, tissue-nonspecific isozyme (Homo sapiens, UniProt P05186).
T3 sequence (P05186 whole entry): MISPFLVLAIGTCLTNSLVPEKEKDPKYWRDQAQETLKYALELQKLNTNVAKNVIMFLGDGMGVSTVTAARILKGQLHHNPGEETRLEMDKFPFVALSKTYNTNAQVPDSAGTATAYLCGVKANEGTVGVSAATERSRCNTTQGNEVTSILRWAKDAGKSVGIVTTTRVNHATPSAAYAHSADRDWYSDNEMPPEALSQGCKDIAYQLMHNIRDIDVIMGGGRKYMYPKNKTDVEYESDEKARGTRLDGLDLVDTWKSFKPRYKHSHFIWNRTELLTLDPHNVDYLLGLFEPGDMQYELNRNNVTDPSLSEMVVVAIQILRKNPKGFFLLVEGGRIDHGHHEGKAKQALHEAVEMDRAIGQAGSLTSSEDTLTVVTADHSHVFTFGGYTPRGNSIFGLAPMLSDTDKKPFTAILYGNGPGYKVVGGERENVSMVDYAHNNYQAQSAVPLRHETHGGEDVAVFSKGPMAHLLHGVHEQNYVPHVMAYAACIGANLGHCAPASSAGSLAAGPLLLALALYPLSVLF
Nature of the assay: TNAP enzyme activators, dose response, selectivity assay for human IAP activator project, biochemical, TNAP isozyme, human IAP uHTS hits (AID 488886).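 Note: potency of compounds raising TNAP activity as a selectivity check on IAP activators.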 The assay is classed as functional.

The target of another assay is Cytochrome P450 2D6 (Homo sapiens, UniProt P10635). As to the kind of experiment: qHTS Assay for Inhibitors and Substrates of Cytochrome P450 2D6. [Related pubchem assays: 410 ]. The assay is classed as ADME. As to conditions: read-out: Potency. (qHTS replaces the single test concentration by a dilution series.)
Chain of Cytochrome P450 2D6 (P10635 whole entry): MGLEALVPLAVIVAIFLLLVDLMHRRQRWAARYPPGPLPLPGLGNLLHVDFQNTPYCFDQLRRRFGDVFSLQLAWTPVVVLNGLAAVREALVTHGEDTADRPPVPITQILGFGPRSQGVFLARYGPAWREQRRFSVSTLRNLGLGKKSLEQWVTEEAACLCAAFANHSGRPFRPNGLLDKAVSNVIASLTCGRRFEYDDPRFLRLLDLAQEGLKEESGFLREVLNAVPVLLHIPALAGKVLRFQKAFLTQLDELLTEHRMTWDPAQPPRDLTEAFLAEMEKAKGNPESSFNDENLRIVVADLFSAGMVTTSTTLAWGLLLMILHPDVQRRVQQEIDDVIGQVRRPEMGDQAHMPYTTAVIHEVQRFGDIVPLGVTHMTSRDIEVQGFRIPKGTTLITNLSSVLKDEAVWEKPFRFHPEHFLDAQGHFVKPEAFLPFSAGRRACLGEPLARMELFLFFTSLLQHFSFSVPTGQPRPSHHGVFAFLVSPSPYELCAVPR
The target of assay [11] is Kappa-type opioid receptor (Homo sapiens, UniProt P41145). As to the kind of experiment: SAR analysis of small molecule agonists of the kappa opioid receptor via a luminescent beta-arrestin assay - Set 2. [Related pubchem assays (depositor defined):AID1777, AID1785, AID1786, AID1966, AID2133, AID2136, AID2284, AID449737]. Type of assay: functional.
Chain of Kappa-type opioid receptor (P41145 whole entry): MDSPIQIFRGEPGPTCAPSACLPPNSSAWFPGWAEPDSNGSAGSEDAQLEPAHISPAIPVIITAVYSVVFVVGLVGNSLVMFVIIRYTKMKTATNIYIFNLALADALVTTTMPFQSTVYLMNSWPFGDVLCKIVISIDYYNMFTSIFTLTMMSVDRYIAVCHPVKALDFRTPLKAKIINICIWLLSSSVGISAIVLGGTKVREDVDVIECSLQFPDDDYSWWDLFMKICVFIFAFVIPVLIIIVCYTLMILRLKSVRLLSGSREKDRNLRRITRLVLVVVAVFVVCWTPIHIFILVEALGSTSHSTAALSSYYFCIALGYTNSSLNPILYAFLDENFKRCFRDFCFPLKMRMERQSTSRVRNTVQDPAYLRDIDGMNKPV
The subject of a further assay is HeLa. Nature of the assay: HeLa cell cytotoxicity, dose response, cytotoxicity control, 24 h, cherry-picked samples (AID 504726).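 Note: potency for cytotoxicity as loss of luminescence signal.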 As to conditions: Homo sapiens. The assay is classed as functional, cell-based.
Assay [12] addresses Mothers against decapentaplegic homolog 3 (Homo sapiens, UniProt P84022). As to the kind of experiment: Smad3 binding inhibitors, lysate ELISA, dose response, cell lysate, secondary confirmation, chemiluminescent ELISA, HEK293 lysate (AID 1058). The assay is classed as functional. A general note: ELISA stands for enzyme-linked immunosorbent assay.
The next assay concerns the target T4, Streptokinase A (Streptococcus pyogenes serotype M1, UniProt P10520).
T4 sequence (P10520 whole entry): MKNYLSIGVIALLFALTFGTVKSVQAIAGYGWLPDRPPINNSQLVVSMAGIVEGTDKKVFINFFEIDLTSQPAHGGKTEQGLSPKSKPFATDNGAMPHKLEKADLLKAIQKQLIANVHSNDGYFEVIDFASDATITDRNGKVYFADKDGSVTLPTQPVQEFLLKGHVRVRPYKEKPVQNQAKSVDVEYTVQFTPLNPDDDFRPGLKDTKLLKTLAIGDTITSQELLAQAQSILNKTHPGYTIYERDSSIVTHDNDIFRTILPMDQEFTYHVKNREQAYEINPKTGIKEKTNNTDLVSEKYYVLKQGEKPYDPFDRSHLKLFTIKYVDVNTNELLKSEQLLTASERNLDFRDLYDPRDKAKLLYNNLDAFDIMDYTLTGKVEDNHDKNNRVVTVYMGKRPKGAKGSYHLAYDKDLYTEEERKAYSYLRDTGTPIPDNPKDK
As to the kind of experiment: S. pyogenes streptokinase expression inhibitors, potency, dose response, plasminogen activation absorbance, OD405 (AID 1914).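 Note: secreted streptokinase activity via plasminogen activation per viability signal from cell pellet.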 The assay is classed as functional, Streptococcus pyogenes M1 GAS.

The subject of assay [13] is Streptococcus sp. 'group A'. As to the kind of experiment: growth inhibition of control SK(-) GAS strain, dose response, counter-screen for streptokinase expression inhibitor project, luminescence, kanamycin, BacTiterGlo, confirmation (AID 1900). Type of assay: functional, organism-based.
The subject of assay [14] is Streptococcus. As to the kind of experiment: Group A Streptococcus viability loss, dose response, counter-screen for streptokinase expression inhibitor project, luminescence, BacTiterGlo (AID 1915).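 Note: potency for reduction of bacterial viability or growth.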 The assay is classed as functional, organism-based.
Assay [15] concerns Streptococcus. As to the kind of experiment: Luminescence Microorganism-Based Dose Response Follow up to Identify Compounds Cytotoxic to Streptococcus. [Related pubchem assays: 1677 (Project Summary), 1915, 1914, 1902 (Retest at Dose), 1900 (Counter Screen), 1662 (Primary HTS)]. The assay is classed as functional, organism-based.

Active and inactive are the calls of the source.

Chain of Mothers against decapentaplegic homolog 3 (P84022 whole entry): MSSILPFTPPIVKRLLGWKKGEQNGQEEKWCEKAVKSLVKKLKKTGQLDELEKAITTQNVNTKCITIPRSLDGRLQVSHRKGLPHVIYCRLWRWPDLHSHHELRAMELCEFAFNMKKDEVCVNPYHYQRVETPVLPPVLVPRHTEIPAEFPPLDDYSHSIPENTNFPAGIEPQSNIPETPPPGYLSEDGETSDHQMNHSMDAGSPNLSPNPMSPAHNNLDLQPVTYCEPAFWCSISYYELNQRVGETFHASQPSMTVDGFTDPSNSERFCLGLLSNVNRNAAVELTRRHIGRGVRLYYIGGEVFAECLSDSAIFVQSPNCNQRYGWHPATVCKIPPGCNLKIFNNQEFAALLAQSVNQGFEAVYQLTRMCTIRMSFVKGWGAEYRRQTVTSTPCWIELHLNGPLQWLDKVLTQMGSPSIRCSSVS
Chain of Chaperone protein dnaK (C3TRK2 whole entry): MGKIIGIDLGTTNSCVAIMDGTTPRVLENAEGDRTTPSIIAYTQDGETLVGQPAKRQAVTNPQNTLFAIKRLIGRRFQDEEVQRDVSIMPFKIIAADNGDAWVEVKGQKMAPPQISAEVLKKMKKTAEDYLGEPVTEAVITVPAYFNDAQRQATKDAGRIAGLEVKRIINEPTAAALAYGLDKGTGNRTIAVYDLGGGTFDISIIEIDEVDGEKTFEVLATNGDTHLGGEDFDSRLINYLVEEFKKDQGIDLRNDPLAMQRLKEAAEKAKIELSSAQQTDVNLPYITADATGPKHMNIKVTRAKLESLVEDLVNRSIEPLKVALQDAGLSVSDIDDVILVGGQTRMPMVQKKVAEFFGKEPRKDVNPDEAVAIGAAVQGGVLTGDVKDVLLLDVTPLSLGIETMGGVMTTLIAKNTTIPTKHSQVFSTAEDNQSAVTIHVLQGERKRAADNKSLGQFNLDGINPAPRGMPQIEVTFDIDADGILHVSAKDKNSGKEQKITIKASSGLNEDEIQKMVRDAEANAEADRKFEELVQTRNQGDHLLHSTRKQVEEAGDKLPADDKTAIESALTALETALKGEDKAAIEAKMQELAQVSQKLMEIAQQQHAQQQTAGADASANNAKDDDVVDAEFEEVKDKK
Chain of Intestinal-type alkaline phosphatase (Mus musculus, UniProt P24822) (P24822 whole entry): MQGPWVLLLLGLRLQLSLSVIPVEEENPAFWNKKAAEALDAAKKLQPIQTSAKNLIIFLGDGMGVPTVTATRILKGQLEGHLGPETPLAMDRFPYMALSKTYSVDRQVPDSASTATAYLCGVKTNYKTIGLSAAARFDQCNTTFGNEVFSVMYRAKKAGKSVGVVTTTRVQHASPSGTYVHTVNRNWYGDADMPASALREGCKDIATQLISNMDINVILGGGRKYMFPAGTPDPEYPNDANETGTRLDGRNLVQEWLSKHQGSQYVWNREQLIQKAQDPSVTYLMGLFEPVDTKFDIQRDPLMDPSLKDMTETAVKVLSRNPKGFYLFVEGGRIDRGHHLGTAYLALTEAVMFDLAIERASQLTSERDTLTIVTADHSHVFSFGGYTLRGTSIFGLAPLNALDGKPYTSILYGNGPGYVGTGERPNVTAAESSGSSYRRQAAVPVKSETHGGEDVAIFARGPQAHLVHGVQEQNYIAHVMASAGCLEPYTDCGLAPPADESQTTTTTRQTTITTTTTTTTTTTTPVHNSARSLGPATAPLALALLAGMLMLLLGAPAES
Chain of Procathepsin L (P07711 whole entry): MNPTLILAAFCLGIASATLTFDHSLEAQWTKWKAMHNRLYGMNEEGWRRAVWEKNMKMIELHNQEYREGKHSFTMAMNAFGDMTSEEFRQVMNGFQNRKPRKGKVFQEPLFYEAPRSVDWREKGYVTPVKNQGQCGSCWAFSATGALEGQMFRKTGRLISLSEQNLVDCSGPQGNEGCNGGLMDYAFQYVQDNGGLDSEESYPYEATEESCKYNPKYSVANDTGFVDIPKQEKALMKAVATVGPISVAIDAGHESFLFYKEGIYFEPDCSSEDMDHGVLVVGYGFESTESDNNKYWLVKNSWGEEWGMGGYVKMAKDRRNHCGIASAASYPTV

In general, Kd refers to the equilibrium constant for the complex coming apart. For `CC(Cc1ccc(F)cc1)NC(=O)c1cccs1` (configuration not stated), the Kd on Chaperone protein dnaK was 28 µM (inactive).

The term IC50 denotes the concentration needed to halve the response being measured. For `O=C(NCC(c1cccnc1)N1CCN(c2ccccc2)CC1)c1cccs1` (configuration not stated), in the assay on Staphylococcus aureus, the half-maximal inhibitory concentration (IC50) was 1.05 µM (active).

In the case of `Cc1cc(C)n2c(S)nnc2n1`, the IC50 in assay [1] is 43.2 µM (active); in [2], 17 µM (active); in assay [3], > 100 µM (inactive); at Aspartyl aminopeptidase it was 6.41 µM (active); in assay [4], > 50 µM (not active); at Procathepsin L, > 59.6 µM (not active).

The EC50 is the concentration that produces a half-maximal response. With `O=c1cc(-c2ccccc2)[nH]n1-c1nc2ccccc2[nH]1`, the EC50 is 2.73 µM (active) in [5]; 2.21 µM (active) in assay [7]; 11.5 µM (active) in assay [8]; 14.8 µM (active) in assay [9]; 17.1 µM (active) in assay [10]. In addition, the concentration for half-maximal inhibition (IC50) in [6] was 36.8 µM (active).

Take `CC1(O)C(=O)C=C2C=C3CCCN3C=C2C1=O` (configuration not stated): the AC50 on Cytochrome P450 2D6 is 7.94 µM (inconclusive).

Turning to `O=C(CN(Cc1cccs1)C(=O)c1cccnc1)NC1CCCCC1`, in [11], the EC50 was > 20 µM (inactive).

Consider `Cc1ccc(N(C)C(=O)C2CCCN2S(=O)(=O)c2ccc3c(c2)n(C)c(=O)c(=O)n3C)cc1` (configuration not stated), for which the AC50 in the assay with HeLa was 267 µM (active).

`Oc1cc2c(cc1C(c1ccc3c(c1)OCO3)N1CCN(C(c3ccc4c(c3)OCO4)c3cc4c(cc3O)OCO4)CC1)OCO2` (configuration not stated): the concentration for half-maximal inhibition (IC50) in assay [12] is on record as 14.1 µM (not active).

Regarding `FC(F)(F)c1cccc(-c2cc3ccccc3nc2N2CCCC2)c1`, the concentration giving a half-maximal response (EC50) was 9.12 µM (active) on Streptokinase A, 6.96 µM (active) in assay [13], > 150 µM (not active) with Streptococcus [14] and > 500 µM (not active) in the assay with Streptococcus [15].
